The record followed here is the PolyMetriX glass transition set.

In turn, `*C(=O)Nc1ccc(C(=O)Nc2ccc(NC(=O)c3ccc4[nH]c(-c5ccc(-c6nc7cc(*)ccc7[nH]6)cc5)nc4c3)cc2)cc1` (repeat unit) returned a glass transition temperature of 300.00 °C.

`*C(=O)Nc1ccc(C(=O)Nc2ccc(NC(=O)c3ccc4[nH]c(-c5cccc(-c6nc7cc(*)ccc7[nH]6)c5)nc4c3)cc2)cc1` (repeat unit) returned a glass transition temperature of 322.00 °C.

`*C(=O)Nc1ccc(Cc2ccc(NC(=O)c3ccc4c(c3)C(=O)N(c3ccc(NC(=O)Nc5ccc(N6C(=O)c7ccc(*)cc7C6=O)cc5)cc3)C4=O)cc2)cc1` (repeat unit) came in with a glass transition temperature of 211.00 °C.

`*C(=O)Nc1ccc(Cc2ccc(NC(=O)c3ccc4c(c3)C(=O)N(c3ccc(Oc5ccc(N6C(=O)c7ccc(*)cc7C6=O)cc5)cc3)C4=O)cc2)cc1` (repeat unit) had a glass transition temperature of 270.00 °C.

The compound `*C(=O)Nc1ccc(Cc2ccc(NC(=O)c3ccc4c(c3)C(=O)N(c3ccc(S(=O)(=O)c5ccc(N6C(=O)c7ccc(*)cc7C6=O)cc5)cc3)C4=O)cc2)cc1` (repeat unit) returned a glass transition temperature of 324.00 °C.

Take `*C(=O)Nc1ccc(NC(=O)Nc2ccc(NC(=O)c3ccc4c(c3)C(=O)N(c3ccc(NC(=O)Nc5ccc(N6C(=O)c7ccc(*)cc7C6=O)cc5)cc3)C4=O)cc2)cc1` (repeat unit): the glass transition temperature came out at 208.00 °C.

`*C(=O)Nc1ccc(NC(=O)c2ccc(N3C(=O)c4ccc(*)cc4C3=O)cc2)cc1` (repeat unit) gave a glass transition temperature of 297.50 °C.

With `*C(=O)Nc1ccc(NC(=O)c2ccc(NC(=O)c3ccc(-c4nc5cc(*)ccc5[nH]4)cc3)cc2)cc1` (repeat unit), the glass transition temperature was 295.00 °C.

With `*C(=O)Nc1ccc(NC(=O)c2ccc3c(c2)C(=O)N(c2ccc(-c4sc(-c5ccc(N6C(=O)c7ccc(*)cc7C6=O)cc5)c(-c5ccccc5)c4-c4ccccc4)cc2)C3=O)cc1` (repeat unit), the glass transition temperature came to 333.00 °C.

`*C(=O)Nc1ccc(NC(=O)c2ccc3c(c2)C(=O)N(c2ccc(S(=O)(=O)c4ccc(N5C(=O)c6ccc(*)cc6C5=O)cc4)cc2)C3=O)cc1` (repeat unit) came in with a glass transition temperature of 368.00 °C.

For `*C(=O)Nc1ccc(Oc2ccc(-c3ccc(Oc4ccc(NC(=O)c5ccc6c(c5)C(=O)N(c5ccc(Oc7ccc(N8C(=O)c9ccc(*)cc9C8=O)cc7)cc5)C6=O)cc4)cc3)cc2)cc1` (repeat unit), the glass transition temperature is 262.00 °C.

`*C(=O)Nc1ccc(Oc2ccc(C(=O)c3ccc(Oc4ccc(NC(=O)c5ccc(*)nc5)cc4)cc3)cc2)cc1` (repeat unit): the glass transition temperature worked out at 170.00 °C.

Compound `*C(=O)Nc1ccc(Oc2ccc(C(c3ccc(Oc4ccc(NC(=O)c5ccc6c(c5)C(=O)N(c5ccc(Oc7ccc8ccc(Oc9ccc(N%10C(=O)c%11ccc(*)cc%11C%10=O)cc9)cc8c7)cc5)C6=O)cc4)cc3)(C(F)(F)F)C(F)(F)F)cc2)cc1` (repeat unit) yielded a glass transition temperature of 250.00 °C.

The compound `*C(=O)Nc1ccc(Oc2ccc(C3(c4ccc(Oc5ccc(NC(=O)c6ccc7c(c6)C(=O)N(c6ccc(N8C(=O)c9ccc(*)cc9C8=O)cc6)C7=O)cc5)cc4)NC(=O)c4ccccc43)cc2)cc1` (repeat unit) registered a glass transition temperature of 322.00 °C.

As to `*C(=O)Nc1ccc(Oc2ccc(C3(c4ccc(Oc5ccc(NC(=O)c6ccc7c(c6)C(=O)N(c6ccc(Oc8ccc(N9C(=O)c%10ccc(*)cc%10C9=O)cc8)cc6)C7=O)cc5)cc4)NC(=O)c4ccccc43)cc2)cc1` (repeat unit), the glass transition temperature stood at 320.00 °C.

Compound `*C(=O)Nc1ccc(Oc2ccc(C3(c4ccc(Oc5ccc(NC(=O)c6ccc7c(c6)C(=O)N(c6ccc(Oc8cccc(N9C(=O)c%10ccc(*)cc%10C9=O)c8)cc6)C7=O)cc5)cc4)NC(=O)c4ccccc43)cc2)cc1` (repeat unit) gave a glass transition temperature of 272.00 °C.

As to `*C(=O)Nc1ccc(Oc2ccc(C3(c4ccc(Oc5ccc(NC(=O)c6ccc7c(c6)C(=O)N(c6ccc(Oc8cccc(Oc9ccc(N%10C(=O)c%11ccc(*)cc%11C%10=O)cc9)c8)cc6)C7=O)cc5)cc4)NC(=O)c4ccccc43)cc2)cc1` (repeat unit), the glass transition temperature is 267.00 °C.

As to `*C(=O)Nc1ccc(Oc2ccc(N3C(=O)CC(N4C(=O)c5ccc(*)cc5C4=O)C3=O)cc2)cc1` (repeat unit), the glass transition temperature stood at 223.00 °C.

Regarding `*C(=O)c1ccc2c(c1)C(=O)N(c1ccc(C(=O)Nc3ccc(N4C(=O)c5ccc(*)cc5C4=O)cc3)cc1)C2=O` (repeat unit), the glass transition temperature came to 300.00 °C.

Compound `*C(=O)c1ccc2c(c1)C(=O)N(c1ccc(NC(=O)c3cccc(C(=O)Nc4ccc(N5C(=O)c6ccc(*)cc6C5=O)cc4)c3)cc1)C2=O` (repeat unit) registered a glass transition temperature of 247.00 °C.

`*C(=O)c1ccc2c(c1)C(=O)N(c1cccc(C(=O)Nc3ccc(N4C(=O)c5ccc(*)cc5C4=O)cc3)c1)C2=O` (repeat unit) returned a glass transition temperature of 308.00 °C.

With `*CCOCCOCCOc1ccc(NC(=O)c2cccc(C(=O)Nc3ccc(O*)cc3)c2)cc1` (repeat unit), the glass transition temperature was found to be 129.00 °C.

For `*Nc1ccc(NC(=O)c2cc(C(*)=O)cc(S(=O)(=O)c3ccccc3)c2)cc1` (repeat unit), the glass transition temperature amounted to 308.00 °C.

Compound `*Nc1ccc(NC(=O)c2ccc(C(*)=O)cc2)cc1` (repeat unit) had a glass transition temperature of 295.00 °C.

Consider `*Nc1ccc(NC(=O)c2ccc(NC(=O)c3cc(NC(=O)C45CC6CC(CC(C6)C4)C5)cc(C(*)=O)c3)cc2)cc1` (repeat unit), for which the glass transition temperature is 365.00 °C.

The compound `*Oc1cc(Oc2ccc(NC(=O)c3cc(NC(=O)C45CC6CC(CC(C6)C4)C5)cc(C(=O)Nc4ccc(*)cc4)c3)cc2)ccc1C12CC3CC(CC(C3)C1)C2` (repeat unit) came in with a glass transition temperature of 345.00 °C.

With `*Oc1ccc(C(=O)Nc2ccc(Cc3ccc(NC(=O)c4ccc(Oc5nc(*)nc(Sc6ccccc6)n5)cc4)cc3)cc2)cc1` (repeat unit), the glass transition temperature was found to be 302.00 °C.

On to `*Oc1ccc(C(c2ccccc2)(c2ccccc2)c2ccc(Oc3ccc(C(=O)Nc4ccc(NC(=O)c5ccc(*)cc5)cc4)cc3)cc2)cc1` (repeat unit), for which the glass transition temperature turned out to be 254.00 °C.

As for `*Oc1ccc(NC(=O)c2ccc(C(=O)Nc3ccc(Oc4ccc(C5(c6ccc(*)cc6)CC6CCC5C6)cc4)cc3)cc2)cc1` (repeat unit), the glass transition temperature was determined as 281.00 °C.

On to `*Oc1ccc(NC(=O)c2ccc(C(c3ccc(C(=O)Nc4ccc(Oc5ccc(C6(c7ccc(*)cc7)C7CC8CC(C7)CC6C8)cc5)cc4)cc3)(C(F)(F)F)C(F)(F)F)cc2)cc1` (repeat unit), for which the glass transition temperature worked out at 241.00 °C.

In turn, `*Oc1ccc(NC(=O)c2ccc(Oc3ccc(C(=O)Nc4ccc(Oc5ccc(C6(c7ccc(*)cc7)C7CC8CC(C7)CC6C8)cc5)cc4)cc3)cc2)cc1` (repeat unit) displayed a glass transition temperature of 230.00 °C.

For the compound `*Oc1ccc(NC(=O)c2ccc(S(=O)(=O)c3ccc(C(=O)Nc4ccc(Oc5ccc(C(c6ccc(*)cc6)(C(F)(F)F)C(F)(F)F)cc5)cc4)cc3)cc2)cc1` (repeat unit), the glass transition temperature amounted to 250.00 °C.

With `*Oc1ccc(NC(=O)c2ccc(S(=O)(=O)c3ccc(C(=O)Nc4ccc(Oc5ccc(C6(c7ccc(*)cc7)C7CC8CC(C7)CC6C8)cc5)cc4)cc3)cc2)cc1` (repeat unit), the glass transition temperature worked out at 252.00 °C.

The compound `*Oc1ccc(NC(=O)c2ccc(S(=O)(=O)c3ccc(C(=O)Nc4ccc(Oc5ccc(C6(c7ccc(*)cc7)CC7CCC6C7)cc5)cc4)cc3)cc2)cc1` (repeat unit) had a glass transition temperature of 287.00 °C.

In turn, `*Oc1ccc(NC(=O)c2ccc3cc(C(=O)Nc4ccc(Oc5ccc(C6(c7ccc(*)cc7)C7CC8CC(C7)CC6C8)cc5)cc4)ccc3c2)cc1` (repeat unit) returned a glass transition temperature of 266.00 °C.

Regarding `*Oc1ccc(NC(=O)c2cccc(C(=O)Nc3ccc(Oc4ccc(C(c5ccc(*)cc5)(C(F)(F)F)C(F)(F)F)cc4)cc3)c2)cc1` (repeat unit), the glass transition temperature turned out to be 228.50 °C.

For `*Oc1ccc(Oc2ccc(C(=O)Nc3ccc(Oc4ccc(-c5ccc(Oc6ccc(NC(=O)c7ccc(*)cc7)cc6)cc5)cc4)cc3)cc2)cc1-c1ccccc1` (repeat unit), the glass transition temperature came out at 232.00 °C.

In turn, `*Oc1cccc(NC(=O)c2ccc(C(=O)Nc3ccc(Oc4ccc(C(=O)c5ccc(*)cc5)cc4)cc3)cc2)c1` (repeat unit) showed a glass transition temperature of 126.00 °C.

On to `*c1ccc(-c2cc(-c3ccc(-c4ccccc4)cc3)cc(-c3ccc(N4C(=O)c5ccc(NC(=O)Nc6ccc(NC(=O)Nc7ccc8c(c7)C(=O)N(*)C8=O)cc6)cc5C4=O)cc3)n2)cc1` (repeat unit), for which the glass transition temperature turned out to be 243.00 °C.

With `*c1ccc(C(=O)Nc2ccc(NC(=O)c3ccc(Oc4ccc(-c5nn(*)c(=O)c6ccccc56)c5ccccc45)cc3)cc2)cc1` (repeat unit), the glass transition temperature came to 347.50 °C.

Regarding `*c1ccc(Cc2ccc(N3C(=O)CC(Nc4ccc(Cc5ccc(NC6CC(=O)N(*)C6=O)cc5)cc4)C3=O)cc2)cc1` (repeat unit), the glass transition temperature was determined as 239.00 °C.

For the compound `*c1ccc(Cc2ccc(N3C(=O)CC(Nc4ccc(N(c5ccc(Nc6ccc([N+](=O)[O-])cc6)cc5)c5ccc(NC6CC(=O)N(*)C6=O)cc5)cc4)C3=O)cc2)cc1` (repeat unit), the glass transition temperature was found to be 324.00 °C.

As for `*c1ccc(Oc2ccc(C(=O)c3ccc(C(=O)c4ccc(Oc5ccc(-c6cc(*)n(-c7ccccc7)n6)cc5)cc4)cc3)cc2)cc1` (repeat unit), the glass transition temperature is 205.00 °C.

In turn, `*c1ccc(Oc2ccc(NC(=O)c3cc(C(=O)Nc4ccc(Oc5ccc(-c6nnc(*)o6)cc5)cc4)cc(N4C(=O)c5ccccc5C4=O)c3)cc2)cc1` (repeat unit) had a glass transition temperature of 285.00 °C.

Consider `*c1ccc(Oc2ccc(NC(=O)c3ccc4c(c3)C(=O)N(c3ccc(Cc5ccc(N6C(=O)c7ccc(C(=O)Nc8ccc(Oc9ccc(C%10(*)NC(=O)c%11ccccc%11%10)cc9)cc8)cc7C6=O)cc5)cc3)C4=O)cc2)cc1` (repeat unit), for which the glass transition temperature worked out at 302.00 °C.

Compound `*c1ccc2c(c1)C(=O)N(c1cccc(C(=O)Nc3ccc(Oc4ccc(C(c5ccc(Oc6ccc(NC(=O)c7cccc(N8C(=O)c9ccc(C(*)(C(F)(F)F)C(F)(F)F)cc9C8=O)c7)cc6)cc5)(C(F)(F)F)C(F)(F)F)cc4)cc3)c1)C2=O` (repeat unit) returned a glass transition temperature of 266.00 °C.
